PMC4865297, “Macromolecular Crystallography and Structural Biology Databases at NIST” (Journal of Research of the National Institute of Standards …, 2001)

Tests used:
chorismate lyase = target: T1, chorismate lyase (Escherichia coli, UniProt P26602, C15S/C82S); experiment: X-ray crystal structure; assay type: binding; settings: both cysteines changed to serine; product complex
T1 construct: gene ubiC; monomer, 164 residues
T1 sequence (P26602 2-165 C15S/C82S): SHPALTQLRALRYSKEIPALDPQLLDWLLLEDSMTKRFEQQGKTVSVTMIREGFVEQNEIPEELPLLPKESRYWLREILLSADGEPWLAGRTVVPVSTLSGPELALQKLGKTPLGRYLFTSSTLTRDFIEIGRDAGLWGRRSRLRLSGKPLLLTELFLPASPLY

[1] = target: T2, catabolite gene activator protein (CAP) (Escherichia coli, UniProt P0ACJ8, A145T); experiment: X-ray crystal structure, soak; assay type: binding; settings: crystals grown with cAMP soaked in 10 mM adenosine; bound in one subunit; text also prints the variant as Thr144Ala
T2 construct: gene crp; homodimer
T2 sequence (P0ACJ8 2-210 A145T): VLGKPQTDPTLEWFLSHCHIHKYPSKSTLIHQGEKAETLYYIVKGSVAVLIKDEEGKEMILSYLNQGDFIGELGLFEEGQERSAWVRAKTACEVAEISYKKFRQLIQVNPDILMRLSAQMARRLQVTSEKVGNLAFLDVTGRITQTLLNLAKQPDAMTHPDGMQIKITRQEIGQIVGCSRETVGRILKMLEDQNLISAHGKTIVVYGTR

SMILES | X-ray crystal structure (chorismate lyase) | X-ray crystal structure, soak [1]
O=C(O)c1ccc(O)cc1 [4-hydroxy benzoate] | the active double Cys-to-Ser variant complexed with product were determined | 
Nc1ncnc2c1ncn2[C@@H]1O[C@H](CO)[C@@H](O)[C@H]1O [adenosine] |  | Adenosine was preferentially substituted for cAMP in only one of the two CAP subunits
